A short description of data set [1]: In vitro cytotoxicity (alamarBlue). The data set is classed as cell-based, murine. Particulars: mouse. The procedure: (§1) The cytotoxicity assays were carried out in a murine macrophages cell line (ATCC TIB-67). The cells were incubated in Dulbecco’s Modified Eagle’s medium (GIBCO, Thermo Fisher Scientific, Madrid, Spain) (DMEM, w/v) supplemented with 10% (v/v) fetal bovine serum (FBS) and 10 µg/mL of gentamicin (Sigma-Aldrich, Madrid, Spain) at 37 °C in a 5% of CO2 atmosphere. The in vitro cytotoxicity of the compounds was determined following the alamarBlue ™ protocol mentioned in the previous section. Murine macrophages were incubated with serial dilutions of the evaluated molecules for 24 h at 37 °C and in presence of 5% of CO2. Finally, the 50% cytotoxic concentration (CC50) was determined after reading the fluorescence. The in vitro IC50, IC90 and CC50 were determined by a non-linear regression analysis with a 95% of confidence limit using the Graphpad Prism version 9.0 (GraphPad Software; CA; USA). Three independent experiments were performed to obtain each data, which is expressed as mean ± standard deviation (SD).
On the technique in general: Resazurin is reduced to fluorescent resorufin, in cell work by metabolically active cells.

Another data set relates to N. fowleri ATCC 30215™. Kind of data set: In vitro activity against Naegleria fowleri trophozoites (alamarBlue), ATCC 30215 strain. The data set is classed as cell-based. Particulars: 37 °C, read-out: 50% inhibitory concentration (IC50) against N. fowleri ATCC 30215™. The procedure: (§2) The in vitro experiments were carried out using two different Naegleria fowleri type strains, ATCC 30808™ and ATCC 30215™. The cells were grown in axenic conditions as previously described in other works of our group. The strains were cultured in a level 3 biological security facility at the Instituto Universitario de Enfermedades Tropicales y Salud Pública de Canarias, Universidad de La Laguna, Spain.
(§3) An alamarBlue™-based colorimetric assay was used to determine the in vitro activity of the chamigrane-type sesquiterpenes. Briefly, a known concentration of the trophozoites (2 × 10^5 cells/mL) was incubated with serial dilutions of the compounds. After, the alamarBlue™ reagent was added and the plate was placed at 37 °C for 48 h. Finally, the fluorescence was read and a non-linear regression analysis with a 95% confidence limit, in order to reckon the 50% and 90% inhibitory concentration (IC50 and IC90), was performed.
(§4) The in vitro IC50, IC90 and CC50 were determined by a non-linear regression analysis with a 95% of confidence limit using the Graphpad Prism version 9.0 (GraphPad Software; CA; USA). Three independent experiments were performed to obtain each data, which is expressed as mean ± standard deviation (SD).

The next data set deals with N. fowleri ATCC 30808™. Briefly: In vitro activity against Naegleria fowleri trophozoites (alamarBlue), ATCC 30808 strain. The data set is classed as cell-based. Particulars: for IC50: trophozoites, alamarBlue, 48 h, 37 °C, read-out: 50% inhibitory concentration (IC50) against N. fowleri ATCC 30808™. The procedure: as §2, §3, §4
Data set [2] has as its system Murine Macrophages J774.A1. Kind of data set: In vitro cytotoxicity (alamarBlue). The data set is classed as cell-based. Particulars: mouse, 24 h. The procedure: as §1
Data set [3] deals with Naegleria fowleri ATCC 30808™ trophozoites. Briefly: Reactive oxygen species production (CellROX Deep Red). Type of data set: cell-based. Particulars: IC90 (2.45 µM), 24 h. The procedure:
(§5) For the determination of the type of cell death that induces (+)-elatol (1), different commercial kits were used. […] Next, the reagents corresponding to each kit were added, allowing the appearance of programmed cell death (PCD) processes in the cells to be observed. Moreover, the percentage of stained cells was determined using the EVOS™ M5000 Software (Invitrogen by Thermo Fisher Scientific). All experiments were performed in triplicate and five different images (×40) were processed each time.
To determine the oxidative damage, the CellROX Deep Red fluorescent assay (Thermo Fisher Scientific) was used. […] These reagents produce red fluorescence with maximum absorption/emission peaks of ~644/665 nm when facing the reactive oxygen species (ROS) in the cytoplasm.
(§6) The percentage of stained cells determination in the PCD assays was calculated using the EVOS™ M5000 Software (Invitrogen by Thermo Fisher Scientific). […] The bar graph of the mitochondrial membrane potential evaluation illustrates the mean fluorescence and SD emitted by the aggregate and monomer forms of the JC-1 stain. […] Moreover, in all the PCD assays, a one-way analysis of variance (ANOVA) was assessed to study the differences between the treated and negative control trophozoites. ** p < 0.01; *** p < 0.001; **** p < 0.0001 significant differences.

Data set [4] deals with Naegleria fowleri (ATCC 30808™) trophozoites. The data set is classed as cell-based. Particulars: not told. The procedure: as §5
The permeability of the plasma membrane was assessed with the SYTOX Green® stain. The plasma membrane is impermeable to the dye in healthy conditions. However, when the permeability of the plasma membrane is compromised, the SYTOX Green® enters the cells, binds the DNA and emits an intense green fluorescence at 523 nm wavelength.
as §6

In data set [5] the test system is Naegleria fowleri ATCC 30808™ trophozoites. Briefly: Mitochondrial membrane potential (JC-1). The data set is classed as cell-based. Particulars: IC90 (2.45 µM), 24 h. The procedure:
as §5
For determining mitochondrial damage in treated amoebae, two different assays were performed. Firstly, to measure the collapse of the transmembrane electrochemical gradient, a lipophilic cationic dye called JC-1 (Cayman Chemicals Vitro SA, Madrid, Spain) was used. […] When the membrane potential is high, the fluorophore will be found in the mitochondria in the j-aggregates form emitting red fluorescence at 595 nm. On the other hand, when membrane depolarization occurs, the reagent disperses and remains in its monomeric form showing green fluorescence at 535 nm.
The percentage of stained cells determination in the PCD assays was calculated using the EVOS™ M5000 Software (Invitrogen by Thermo Fisher Scientific). […] The bar graph of the mitochondrial membrane potential evaluation illustrates the mean fluorescence and SD emitted by the aggregate and monomer forms of the JC-1 stain. […]

Data set [6] concerns Naegleria fowleri cysts (ATCC 30808™). Kind of data set: In vitro cysticidal activity (alamarBlue fluorometric assay). The data set is classed as cell-based. Particulars: ATCC30808, ATCC 30808™ cysts, 24 h incubation then 72 h with alamarBlue, read-out: IC50 against N. fowleri cysts (cysticidal activity). The procedure:
For the in vitro cysticidal activity assays, the Naegleria fowleri ATCC 30808™ strain was used. Cysts were obtained transferring the bactocasitone grown trophozoites to the MYAS medium and keeping them for ten days in slight agitation. The in vitro activity of the compounds against the Naegleria fowleri cyst was determined using an alamarBlue™-based fluorometric assay as previously described. Mature cysts were incubated with serial dilutions of the evaluated compound for 24 h at 37 °C. After that, the medium was removed and fresh bactocasitone was added. Later, the alamarBlue® reagent was placed and the plates were incubated for 72 additional hours at 37 °C. Finally, the EnSpire Multimode Plate Reader (PerkinElmer, Madrid, Spain) was used to read the fluorescence and calculate the IC50 as described in Section 4.3. The in vitro IC50, IC90 and CC50 were determined by a non-linear regression analysis with a 95% of confidence limit using the Graphpad Prism version 9.0 (GraphPad Software; CA; USA). Three independent experiments were performed to obtain each data, which is expressed as mean ± standard deviation (SD).

Data set [7] has as its system Naegleria fowleri ATCC 30808™ trophozoites. Kind of data set: ATP production (CellTiter-Glo). The data set is classed as cell-based. Particulars: IC90 (2.45 µM), 24 h. The procedure: as §5
Afterwards, to validate the mitochondrial damage, the levels of ATP produced in the amoebae treated with the IC90 of the compound were analyzed using the CellTiter-Glo® Luminescent Cell Viability Assay reagent (Promega Biotech Ibérica S.L, Madrid, Spain) following manufacturer’s instructions.
On the technique in general: In ATP-based viability assays light output follows the ATP content of the culture.

Data set [8] shares this test system. Kind of data set: Chromatin condensation (Hoechst 33342/PI double stain). Type of data set: cell-based. Particulars: IC90 (2.45 µM), 24 h. The procedure:
as §5
The condensed chromatin was detected with the double-stain apoptosis detection kit (Hoechst 33342/PI) (Life Technologies, Madrid, Spain). The Hoechst 33342 stain emits blue fluorescence in the presence of condensed chromatin while the Propidium iodide (PI) is able to travel through the membrane of dead cells and emit a red fluorescence.
as §6

[9] abbreviates: J774.A1 murine macrophage cell line (ATCC TIB-67), alamarBlue, 24 h, 37 °C, read-out: 50% cytotoxic concentration (CC50) against murine macrophages J774.A1.
[10] abbreviates: Naegleria fowleri, ATCC30215, 48 h.
[11] abbreviates: Naegleria fowleri, ATCC30808, 48 h.

Structures are written as SMILES. Read-outs that look alike come from different tables or passages of the source.

Consider twelve molecules from article PMC10143968, “Chamigrane-Type Sesquiterpenes from Laurencia dendroidea as Lead Compounds against Naegleria fowleri” (Marine Drugs, 2023).

By IC90 is commonly meant the concentration needed for an effect of 90%. Higher therefore signals weaker potency.

In the case of `CCCCCCCCCCCCCCCCOP(=O)([O-])OCC[N+](C)(C)C` [Miltefosine, reference compound], in data set [1] (setting [9]), the CC50 at 24 h came out at 128 ± 8.85 µM. Besides, the IC50 in the data set with N. fowleri ATCC 30215™ (setting [10]) was determined as 81.6 ± 7.23 µM; in the data set on N. fowleri ATCC 30808™ (setting [11]), 38.7 ± 4.23 µM.
For `C=C1C[C@@H](O)[C@@H](Br)C(C)(C)[C@]12CC[C@](C)(Br)[C@@H](Cl)C2` [(+)-Obtusol (9), (+)-obtusol], the IC50 with N. fowleri ATCC 30808™ (setting [11]) is above 60.3 µM.
On to `C=C1C[C@@H](O)[C@@H](Br)C(C)(C)[C@]12CC[C@@](C)(O)[C@@H](Cl)C2` [(+)-Dendroidiol (7), (−)-dendroidiol], for which the IC50 with N. fowleri ATCC 30808™ (setting [11]) was above 71.1 µM.
`C=C1C[C@H](O)[C@H](Br)C(C)(C)[C@]12CC=C(C)CC2` [(+)-Dechloroelatol (4), (+)-dechloroelatol]: in the data set on N. fowleri ATCC 30808™ (setting [11]), the IC50 is above 83.5 µM.
As for `CC1=CC[C@@H](Br)C(C)(C)[C@]12CC[C@](C)(Br)[C@@H](Cl)C2` [(−)-3,10-dibromo-4-chloro-alpha-chamigrane], in the data set with N. fowleri ATCC 30808™ (setting [11]), the IC50 is above 62.7 µM.
On to `C=C1CC(O)C(Br)C(C)(C)C12CCC(C)(Cl)C(Br)C2` (single isomer, unassigned; (-)) [(−)-Rogiolol (5), (−)-rogiolol], for which the CC50 at 24 h in data set [1] (50% cytotoxic concentration (CC50) against murine macrophages J774.A1) came to 142 ± 17.2 µM. Besides, the IC50 was 9.71 ± 0.82 µM in the data set on N. fowleri ATCC 30215™ (setting [10]) and 22.5 ± 5.81 µM with N. fowleri ATCC 30808™ (setting [11]).
Regarding `C=C1C[C@@H](O)[C@@H](Br)C(C)(C)[C@]12CC[C@@](C)(Cl)[C@H](Br)C2` [(−)-Cartilagineol (8), (−)-cartilagenol], in the data set with N. fowleri ATCC 30808™ (setting [11]), the IC50 was above 60.3 µM.
Regarding `C=C1C[C@H](O)CC(C)(C)[C@@]12CCC(C)=C(Cl)C2` [(+)-Debromoelatol (3), (+)-debromoelatol], in the data set on N. fowleri ATCC 30808™ (setting [11]), the IC50 is above 98.1 µM.
Regarding `C[C@@H]1[C@H](O)[C@@H](C)/C=C/C=C/C=C/C=C/C=C/C=C/C=C/[C@H](O[C@@H]2O[C@H](C)[C@@H](O)[C@H](N)[C@@H]2O)C[C@@H]2O[C@](O)(C[C@@H](O)C[C@@H](O)[C@H](O)CC[C@@H](O)C[C@@H](O)CC(=O)O[C@H]1C)C[C@H](O)[C@H]2C(=O)O` [Amphotericin B, reference compound], in [1] (setting [9]), the CC50 at 24 h was above 200 µM. Besides, the IC50 with N. fowleri ATCC 30808™ (setting [11]) came to 0.12 ± 0.03 µM.
`C=C1CC(O)C(Br)C(C)(C)C12CCC(C)=C(Cl)C2` (single isomer, unassigned; (-)) [(−)-Elatol (2), (−)-elatol]: the CC50 in data set [2] is above 150 µM. The IC50 in the data set on N. fowleri ATCC 30215™ (48 h) came out at 38 ± 7.61 µM; in the data set on N. fowleri ATCC 30808™, 36.8 ± 8.03 µM. In addition, the “fold less potent than (+)-elatol (1)” value with N. fowleri ATCC 30808™ (IC50 ratio against N. fowleri trophozoites) is 34 fold.
As to `C=C1CC[C@@H](Br)C(C)(C)[C@@]12CC[C@@](C)(Br)[C@H](Cl)C2` [(+)-Obtusane (10), (+)-obtusane], the IC50 in the data set with N. fowleri ATCC 30808™ (setting [11]) is above 62.7 µM.
In the case of `C=C1CC(O)C(Br)C(C)(C)C12CCC(C)=C(Cl)C2` (single isomer, unassigned; (+)) [(+)-Elatol (1), (+)-elatol], in [3], the “ROS generation (CellROX Deep Red)” value is recorded as “induces the over-generation of ROS”. Besides, the “plasma membrane permeability (SYTOX Green fluorescence)” value in data set [4] is on record as “plasma membrane is damaged in treated cells”. Further, the CC50 in [2] was determined as 61.5 ± 13 µM. The “mitochondrial membrane potential (JC-1)” value in [5] is listed as “depolymerization of the mitochondrial membrane potential”. In addition, the IC50 turned out to be 1.14 µM in data set [6], 1.14 ± 0.09 µM in the data set with N. fowleri ATCC 30215™ (48 h) and 1.08 ± 0.09 µM in the data set with N. fowleri ATCC 30808™. Also, in [7], the “reduction of ATP production compared to untreated cells” value worked out at 82.11%. Moreover, the 90% effect concentration (IC90) with N. fowleri ATCC 30808™ (Naegleria fowleri, ATCC30808, ATCC 30808™ strain) is 2.45 µM. The “chromatin condensation (Hoechst 33342 fluorescence)” value in data set [8] is recorded as “intense blue fluorescence”. Further, in [8], the “propidium iodide staining (red fluorescence)” value was “absence of the red fluorescence”.
